Laboratory results as given in US20160168540A1, “COMPOSITION FOR MAINTAINING PLATELET FUNCTION” (KYOTO UNIVERSITY, priority 2013, published 2016).

Target: T1, TACE (ADAM17) (Homo sapiens, UniProt P78536)
T1 construct: made in house; host or cells: mammalian cells or insect cells
Assay: TACE (ADAM17) inhibition test
Type: biochemical
Details: fluorescent synthetic substrate, 37° C. for 1.5 hours; read-out: TACE IC50
From the text: The nucleotide sequence of TACE has been reported by Moss et al. (Moss, M. L. et al., Nature 1997, vol. 385, pp. 733-736). Based on this information, the cDNA of TACE was obtained according to the prescribed method from THP-1 cells or the like, and then incorporated the cDNA into an expression vector. Next, this vector was transformed into mammalian cells or insect cells, and TACE protein was expressed. The TACE protein was isolated, and used as an enzyme. Further, a fluorescent synthetic substrate Nma(N-methylanthranilic acid)-Leu-Ala-Gln-Ala-Val-Arg-Ser-Ser-Lys(Dnp(dinitrophenyl))-D-Arg-NH2 including the TACE-cleaved sequence of a membrane-bound TNF was used as a substrate. The enzyme reaction was carried out by adding 1.8 μL of a solution of the test substance to 90 μL of a fluorescent synthetic substrate prepared with an assay buffer B (50 mM tris-hydrochloric acid buffer (pH 7.5) including 200 mM sodium chloride, 5 mM calcium chloride, 10 μM zinc sulfate, and 0.05% PLURONIC F-68), then mixing 90 μL of a TACE enzyme solution prepared with an assay buffer A (50 mM tris-hydrochloric acid buffer (pH 7.5) including 200 mM sodium chloride, 5 mM calcium chloride, 10 μM zinc sulfate, and 2 mg/mL bovine serum albumin) and reacting at 37° C. for 1.5 hours. Enzyme activity was then determined by measuring with a fluorescence intensity meter (Labsystems, Fluoroskan Ascent) at an excitation wavelength of 355 nm and a measurement wavelength of 460 nm. The 50% inhibitory concentration (IC50) of the test substances was calculated by comparing enzyme activity in the presence and the absence of the test substance to determine the inhibition rate. Further, test substances having an IC50 strength of less than 100 nM were evaluated as “A”, and test substances having an IC50 strength of 100 nM or more were evaluated as “B”.

T1 sequence (P78536 215-824): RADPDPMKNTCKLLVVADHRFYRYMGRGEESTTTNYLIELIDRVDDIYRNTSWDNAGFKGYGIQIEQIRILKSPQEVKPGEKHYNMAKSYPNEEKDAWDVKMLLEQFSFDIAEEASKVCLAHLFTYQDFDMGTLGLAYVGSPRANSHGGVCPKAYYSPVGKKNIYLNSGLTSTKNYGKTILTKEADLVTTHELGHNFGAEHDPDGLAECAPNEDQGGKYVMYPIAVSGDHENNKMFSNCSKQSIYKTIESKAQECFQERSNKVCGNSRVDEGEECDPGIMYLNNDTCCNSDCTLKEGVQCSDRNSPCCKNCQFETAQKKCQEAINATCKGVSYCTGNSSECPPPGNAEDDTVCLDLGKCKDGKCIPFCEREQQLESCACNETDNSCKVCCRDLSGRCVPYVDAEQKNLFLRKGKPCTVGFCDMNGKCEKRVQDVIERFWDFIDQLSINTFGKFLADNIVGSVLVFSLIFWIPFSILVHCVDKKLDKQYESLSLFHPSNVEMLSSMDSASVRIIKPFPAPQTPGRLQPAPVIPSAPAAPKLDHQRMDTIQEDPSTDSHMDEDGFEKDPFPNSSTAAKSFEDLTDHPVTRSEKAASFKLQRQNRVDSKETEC

IC50, < 100 nM:
Cc1ccccc1Oc1ccc(C2(Cn3cccc(C)c3=O)NC(=O)NC2=O)cc1 (racemic) [Compound I-35, 5-[(3-methyl-2-oxopyridin-1(2H)-yl)methyl]-5-[4-(o-tolyloxy)phenyl]imidazolidine-2,4-dione]
Cc1cccn(CC2(c3ccc(CC(C)C)cc3)NC(=O)NC2=O)c1=O (racemic) [Compound I-121]
Cc1cccn(CC2(c3cc(F)c(F)cc3F)NC(=O)NC2=O)c1=O (racemic) [Compound I-29, 5-[(3-methyl-2-oxopyridin-1(2H)-yl)methyl]-5-(2,4,5-trifluorophenyl)imidazolidine-2,4-dione]
O=C1NC(=O)C(Cn2cccc(Br)c2=O)(c2ccc(Cc3ccccc3)cc2)N1 (racemic) [Compound I-149]
COc1ccc(C2(Cn3ccccc3=O)NC(=O)NC2=O)cc1 (racemic) [Compound I-47, 5-(4-methoxyphenyl)-5-[(2-oxopyridin-1(2H)-yl)methyl]imidazolidine-2,4-dione]
Cc1cccn(CC2(c3ccc4c(c3)OCCCO4)NC(=O)NC2=O)c1=O (racemic) [Compound I-105]
O=C1NC(=O)C(Cn2cccc(F)c2=O)(c2ccc(F)cc2)N1 (racemic) [Compound I-48, 5-[(3-fluoro-2-oxopyridin-1(2H)-yl)methyl]-5-(4-fluorophenyl)-imidazolidine-2,4-dione]
Cc1cccn(CC2(c3ccc(Cc4ccc(Cl)cc4)cc3)NC(=O)NC2=O)c1=O (racemic) [Compound I-130]
Cc1cccn(CC2(c3ccc(Oc4ccc(F)cc4F)cc3)NC(=O)NC2=O)c1=O (racemic) [Compound I-97]
COc1cc(C2(Cn3cccc(C)c3=O)NC(=O)NC2=O)cc(F)c1F (racemic) [Compound I-127]
Cc1cccn(CC2(c3ccc(C#Cc4ccccn4)cc3)NC(=O)NC2=O)c1=O (racemic) [Compound I-110]
Cc1cccn(CC2(c3cccc(F)c3)NC(=O)NC2=O)c1=O (racemic) [Compound I-28, 5-(3-fluorophenyl)-5-[(3-methyl-2-oxopyridin-1(2H)-yl)methyl]imidazolidine-2,4-dione]
O=C1NC(=O)C(Cn2cccc(Br)c2=O)(c2ccccc2)N1 (racemic) [Compound I-139]
Cc1cc(C2(Cn3cccc(C)c3=O)NC(=O)NC2=O)ccc1OC1CCCCC1 (racemic) [Compound I-131]
Cc1cccn(CC2(c3ccc(-c4nn[nH]n4)cc3)NC(=O)NC2=O)c1=O (racemic) [Compound I-42, 5-[4-(2H-tetrazol-5-yl)phenyl]-5-[(3-methyl-2-oxopyridin-1(2H)-yl)methyl]imidazolidine-2,4-dione]
Cc1cccn(CC2(c3cccc(-c4ccc(F)cn4)c3)NC(=O)NC2=O)c1=O (racemic) [Compound I-93]
Cc1cccn(CC2(c3ccc(CCc4ccccc4)cc3)NC(=O)NC2=O)c1=O (racemic) [Compound I-107]
CCOc1ccc(C2(Cn3cccc(C)c3=O)NC(=O)NC2=O)cc1 (racemic) [Compound I-119]
O=C1NC(=O)C(Cn2cccc(F)c2=O)(c2ccccc2)N1 (racemic) [Compound I-132]
O=C1NC(=O)C(Cn2cccc(Cl)c2=O)(c2cc3ccccc3o2)N1 (racemic) [Compound I-51, 5-(benzofuran-2-yl)-5-[(3-chloro-2-oxopyridin-1(2H)-yl)methyl]imidazolidine-2,4-dione]
COc1ccc(C2(Cn3cccc(C)c3=O)NC(=O)NC2=O)cc1F (racemic) [Compound I-14, 5-(3-fluoro-4-methoxyphenyl)-5-[(3-methyl-2-oxopyridin-1(2H)-yl)methyl]imidazolidine-2,4-dione]
Cc1cc(C2(Cn3cccc(C)c3=O)NC(=O)NC2=O)ccc1F (racemic) [Compound I-30, 5-(4-fluoro-3-methylphenyl)-5-[(3-methyl-2-oxopyridin-1(2H)-yl)methyl]imidazolidine-2,4-dione]
Cc1cccn(CC2(c3ccc(CCc4ccccn4)cc3)NC(=O)NC2=O)c1=O (racemic) [Compound I-115]
Cc1cccn(CC2(c3cc4ccccc4o3)NC(=O)NC2=O)c1=O (racemic) [Compound I-6, 5-(benzofuran-2-yl)-5-[(3-methyl-2-oxopyridin-1(2H)-yl)methyl]imidazolidine-2,4-dione]
Cc1cccn(CC2(c3ccc(OCc4ccc(F)cc4)cc3)NC(=O)NC2=O)c1=O (racemic) [Compound I-88]
Cc1cccn(CC2(c3ccc(C#CC(C)(C)C)cc3)NC(=O)NC2=O)c1=O (racemic) [Compound I-33, 5-[4-(3,3-dimethylbut-1-yn-1-yl)phenyl]-5-[(3-methyl-2-oxopyridin-1(2H)-yl)methyl]imidazolidine-2,4-dione]
Cc1ccc(Oc2ccc(C3(Cn4cccc(C)c4=O)NC(=O)NC3=O)cc2)cc1 (racemic) [Compound I-34, 5-[(3-methyl-2-oxopyridin-1(2H)-yl)methyl]-5-[4-(p-tolyloxy)phenyl]imidazolidine-2,4-dione]
N#Cc1ccc(C2(Cn3cccc(Cl)c3=O)NC(=O)NC2=O)cc1 (racemic) [Compound I-138]
Cc1cccn(CC2(c3ccc(OC(C)C)cc3)NC(=O)NC2=O)c1=O (racemic) [Compound I-120]
Cc1cccn(CC2(c3cccc(-c4cccnc4)c3)NC(=O)NC2=O)c1=O (racemic) [Compound I-62]
COc1ccc(C2(Cn3cccc(C)c3=O)NC(=O)NC2=O)c(OC)c1 (racemic) [Compound I-18, 5-(2,4-dimethoxyphenyl)-5-[(3-methyl-2-oxopyridin-1(2H)-yl)methyl]imidazolidine-2,4-dione]
COc1ccc(C2(Cn3cccc(C)c3=O)NC(=O)NC2=O)cc1 (racemic) [Compound I-2, 5-(4-methoxyphenyl)-5-[(3-methyl-2-oxopyridin-1(2H)-yl)methyl]imidazolidine-2,4-dione]
Cc1cccn(CC2(c3ccc(OCc4ccccc4)cc3)NC(=O)NC2=O)c1=O (racemic) [Compound I-64]
COc1cccc(Oc2ccc(C3(Cn4cccc(C)c4=O)NC(=O)NC3=O)cc2)c1 (racemic) [Compound I-83]
Cc1cccn(CC2(c3ccc(C(C)(C)C)cc3)NC(=O)NC2=O)c1=O (racemic) [Compound I-17, 5-[4-(tert-butyl)phenyl]-5-[(3-methyl-2-oxopyridin-1(2H)-yl)methyl]imidazolidine-2,4-dione]
Cc1cccn(CC2(c3ccc(Br)cc3)NC(=O)NC2=O)c1=O (racemic) [Compound I-11, 5-(4-bromophenyl)-5-[(3-methyl-2-oxopyridin-1(2H)-yl)methyl]imidazolidine-2,4-dione]
Cc1cccn(CC2(c3ccc(Cc4ccc(F)cc4)cc3)NC(=O)NC2=O)c1=O (racemic) [Compound I-41, 5-[4-(4-fluorobenzyl)phenyl]-5-[(3-methyl-2-oxopyridin-1(2H)-yl)methyl]imidazolidine-2,4-dione]
Cc1cccn(CC2(c3ccc(Oc4cccc(F)c4)cc3)NC(=O)NC2=O)c1=O (racemic) [Compound I-84]
COc1cccc(-c2ccc(C3(Cn4cccc(C)c4=O)NC(=O)NC3=O)cc2)c1 (racemic) [Compound I-73]
N#Cc1ccc(C2(Cn3cccc(C(F)(F)F)c3=O)NC(=O)NC2=O)cc1 (racemic) [Compound I-142]
O=C1NC(=O)C(Cn2cccc(F)c2=O)(c2ccc3ccccc3c2)N1 (racemic) [Compound I-135]
Cc1cccn(CC2(c3cc(F)c(F)c(F)c3)NC(=O)NC2=O)c1=O (racemic) [Compound I-44, 5-[(3-methyl-2-oxopyridin-1(2H)-yl)methyl]-5-(3,4,5-trifluorophenyl)imidazolidine-2,4-dione]
Cc1cccn(CC2(c3ccc(C#N)cc3)NC(=O)NC2=O)c1=O (racemic) [Compound I-3, 4-{4-[(3-methyl-2-oxopyridin-1(2H)-yl)methyl]-2,5-dioxoimidazolidine-4-yl}benzonitrile]

IC50, ≥ 100 nM:
O=C1NC(=O)C(Cn2ccccc2=O)(c2ccc(Cc3ccccc3)cc2)N1 (racemic) [Compound I-156]
C=C(C)c1cccn(CC2(c3ccc(OC)cc3)NC(=O)NC2=O)c1=O (racemic) [Compound I-144]
Cc1cccn(CC2(c3ccccc3OCc3ccccc3)NC(=O)NC2=O)c1=O (racemic) [Compound I-68]
